Laboratory results as given in US11485742B2, “2-azaspiro[3.4]octane derivatives as M4 agonists” (NOVARTIS AG, priority 2019, dated 2022).

Biological target: T1, human cloned CHRM2 receptor (Homo sapiens, UniProt P08172)
T1 construct: expressed in transfected cells; host or cells: CHO-K1 (M2_CHO)
T1 sequence (P08172 1-466): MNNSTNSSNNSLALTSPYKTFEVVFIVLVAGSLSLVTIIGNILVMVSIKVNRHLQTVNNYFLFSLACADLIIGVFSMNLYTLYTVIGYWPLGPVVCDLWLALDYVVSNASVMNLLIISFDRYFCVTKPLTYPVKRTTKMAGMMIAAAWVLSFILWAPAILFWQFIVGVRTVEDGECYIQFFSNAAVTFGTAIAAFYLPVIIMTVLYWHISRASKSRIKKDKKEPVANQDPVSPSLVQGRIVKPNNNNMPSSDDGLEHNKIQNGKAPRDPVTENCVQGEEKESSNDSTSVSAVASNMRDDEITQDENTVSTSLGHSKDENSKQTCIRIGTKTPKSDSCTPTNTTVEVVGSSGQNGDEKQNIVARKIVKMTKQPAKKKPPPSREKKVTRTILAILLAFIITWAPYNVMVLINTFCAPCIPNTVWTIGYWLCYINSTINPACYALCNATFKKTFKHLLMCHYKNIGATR
Assay: CHRM2 Ca++ Flux Assay (M2_CHO cells, agonist mode)
Format: cell-based
Conditions: M2 CHO cells; for EC50: agonist mode, geometric mean if tested more than once, read-out: M2 FDSS EC50; for Emax: Percent Activity (PA) measured to EC100 of Carbachol, read-out: M2 FDSS PA %
Summary of the method: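 Agonist activity was expressed as percent of the carbachol EC100 response, fitted by four-parameter regression on triplicate wells, with geometric means across repeat runs. Calcium traces over 3 minutes came from dye-loaded M2_CHO cells (12K/well) pre-incubated 60 min in Ca/Mg-free HBSS with 20 mM HEPES, 2.5 mM probenecid and 20 μM ATP.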

EC50 [nM] | Emax [%] | SMILES
2030 | 20 | Fc1ccc(OC[C@H]2CCCO2)c(C2CCN([C@@H]3COC4(C3)CN(c3nnco3)C4)CC2)c1 [Example 2M, (S)-7-(4-(5-fluoro-2-(((R)-tetrahydrofuran-2-yl)methoxy)phenyl)piperidin-1-yl)-2-(1,3,4-oxadiazol-2-yl)-5-oxa-2-azaspiro[3.4]octane]
1420 | 43 | Fc1ccc(OC[C@H]2CCOC2)c(C2CCN([C@@H]3COC4(C3)CN(c3nncs3)C4)CC2)c1 [Example 5X, (S)-7-(4-(5-fluoro-2-(((S)-tetrahydrofuran-3-yl)methoxy)phenyl)piperidin-1-yl)-2-(1,3,4-thiadiazol-2-yl)-5-oxa-2-azaspiro[3.4]octane]
109 | 35 | Fc1ccc(OCc2ncccn2)c(C2CCN([C@@H]3COC4(C3)CN(c3nnco3)C4)CC2)c1 [Example 2I, (S)-7-(4-(5-fluoro-2-(pyrimidin-2-ylmethoxy)phenyl)piperidin-1-yl)-2-(1,3,4-oxadiazol-2-yl)-5-oxa-2-azaspiro[3.4]octane]
1070 | 14 | Fc1ccc(OC2CC3(COC3)C2)c(C2CCN([C@@H]3COC4(C3)CN(c3nnco3)C4)CC2)c1 [Example 2L, (S)-7-(4-(2-((2-oxaspiro[3.3]heptan-6-yl)oxy)-5-fluorophenyl)piperidin-1-yl)-2-(1,3,4-oxadiazol-2-yl)-5-oxa-2-azaspiro[3.4]octane]
1090 | 51 | c1ccc(C2CCN([C@@H]3COC4(C3)CN(c3nnco3)C4)CC2)c(OC2COC2)c1 [Example 1P, (S)-2-(1,3,4-oxadiazol-2-yl)-7-(4-(2-(oxetan-3-yloxy)phenyl)piperidin-1-yl)-5-oxa-2-azaspiro[3.4]octane]
874 | 35 | Fc1ccc(OCC2CCOCC2)c(C2CCN([C@@H]3COC4(C3)CN(c3nnco3)C4)CC2)c1 [Example 1J, (S)-7-(4-(5-fluoro-2-((tetrahydro-2H-pyran-4-yl)methoxy)phenyl)piperidin-1-yl)-2-(1,3,4-oxadiazol-2-yl)-5-oxa-2-azaspiro[3.4]octane]
> 25000 | 0 | COCCOc1ccc(F)cc1C1CCN([C@@H]2COC3(C2)CN(c2nnco2)C3)CC1 [Example 1L, (S)-7-(4-(5-fluoro-2-(2-methoxyethoxy)phenyl)piperidin-1-yl)-2-(1,3,4-oxadiazol-2-yl)-5-oxa-2-azaspiro[3.4]octane]
656 | 13 | COc1cc(F)ccc1C1CCN([C@@H]2COC3(C2)CN(c2nnco2)C3)CC1 [Example 1S, (S)-7-(4-(4-fluoro-2-methoxyphenyl)piperidin-1-yl)-2-(1,3,4-oxadiazol-2-yl)-5-oxa-2-azaspiro[3.4]octane]
874 | 35 | Cc1nnc(-c2ccccc2C2CCN([C@@H]3COC4(C3)CN(c3nnco3)C4)CC2)o1 [Example 1Y, (S)-7-(4-(2-(5-methyl-1,3,4-oxadiazol-2-yl)phenyl)piperidin-1-yl)-2-(1,3,4-oxadiazol-2-yl)-5-oxa-2-azaspiro[3.4]octane]
416 | 35 | CC1(COc2ccc(F)cc2C2CCN([C@@H]3COC4(C3)CN(c3nncs3)C4)CC2)COC1 [Example 2B, (S)-7-(4-(5-fluoro-2-((3-methyloxetan-3-yl)methoxy)phenyl)piperidin-1-yl)-2-(1,3,4-thiadiazol-2-yl)-5-oxa-2-azaspiro[3.4]octane]
3810 | 16 | COc1ccccc1C1CCN([C@@H]2COC3(C2)CN(c2nnco2)C3)CC1 [Example 1Q, (S)-7-(4-(2-methoxyphenyl)piperidin-1-yl)-2-(1,3,4-oxadiazol-2-yl)-5-oxa-2-azaspiro[3.4]octane]
520 | 46 | Fc1ccc(OCC2COC2)c(C2CCN([C@@H]3COC4(C3)CN(c3nncs3)C4)CC2)c1 [Example 2A, (S)-7-(4-(5-fluoro-2-(oxetan-3-ylmethoxy)phenyl)piperidin-1-yl)-2-(1,3,4-thiadiazol-2-yl)-5-oxa-2-azaspiro[3.4]octane]
309 | 60 | Fc1ccc(OCC2COC2)c(C2CCN([C@@H]3COC4(C3)CN(c3nnco3)C4)CC2)c1 [Example 2H, (S)-7-(4-(5-fluoro-2-(oxetan-3-ylmethoxy)phenyl)piperidin-1-yl)-2-(1,3,4-oxadiazol-2-yl)-5-oxa-2-azaspiro[3.4]octane]
2180 | 29 | Fc1ccc(OCC2CC3(COC3)C2)c(C2CCN([C@@H]3COC4(C3)CN(c3nnco3)C4)CC2)c1 [Example 2S, (S)-7-(4-(2-((2-oxaspiro[3.3]heptan-6-yl)methoxy)-5-fluorophenyl)piperidin-1-yl)-2-(1,3,4-oxadiazol-2-yl)-5-oxa-2-azaspiro[3.4]octane]
> 25000 | 0 | CC(C)(O)CCOc1ccc(F)cc1C1CCN([C@@H]2COC3(C2)CN(c2nnco2)C3)CC1 [Example 1N, (S)-4-(2-(1-(2-(1,3,4-oxadiazol-2-yl)-5-oxa-2-azaspiro[3.4]octan-7-yl)piperidin-4-yl)-4-fluorophenoxy)-2-methylbutan-2-ol]
> 25000 | 0 | CC(C)(O)COc1ccccc1C1CCN([C@@H]2COC3(C2)CN(c2ncns2)C3)CC1 [Example 5Y, (S)-1-(2-(1-(2-(1,2,4-thiadiazol-5-yl)-5-oxa-2-azaspiro[3.4]octan-7-yl)piperidin-4-yl)phenoxy)-2-methylpropan-2-ol]
275 | 51 | OC1(COc2ccc(F)cc2C2CCN([C@@H]3COC4(C3)CN(c3nnco3)C4)CC2)COC1 [Example 2U, (S)-3-((2-(1-(2-(1,3,4-oxadiazol-2-yl)-5-oxa-2-azaspiro[3.4]octan-7-yl)piperidin-4-yl)-4-fluorophenoxy)methyl)oxetan-3-ol]
81 | 59 | Cc1nnc(COc2ccc(F)cc2C2CCN([C@@H]3COC4(C3)CN(c3nnco3)C4)CC2)s1 [Example 2E, (S)-7-(4-(5-fluoro-2-((5-methyl-1,3,4-thiadiazol-2-yl)methoxy)phenyl)piperidin-1-yl)-2-(1,3,4-oxadiazol-2-yl)-5-oxa-2-azaspiro[3.4]octane]
2480 | 25 | c1ccc(C2CCN([C@@H]3COC4(C3)CN(c3nnco3)C4)CC2)c(-c2ncco2)c1 [Example 1X, (S)-2-(1,3,4-oxadiazol-2-yl)-7-(4-(2-(oxazol-2-yl)phenyl)piperidin-1-yl)-5-oxa-2-azaspiro[3.4]octane]
752 | 23 | Fc1ccc(OC2COCOC2)c(C2CCN([C@@H]3COC4(C3)CN(c3nnco3)C4)CC2)c1 [Example 1M, (S)-7-(4-(2-((1,3-dioxan-5-yl)oxy)-5-fluorophenyl)piperidin-1-yl)-2-(1,3,4-oxadiazol-2-yl)-5-oxa-2-azaspiro[3.4]octane]
1510 | 18 | Fc1ccc(OC2CC3(COC3)C2)c(C2CCN([C@@H]3COC4(C3)CN(c3ncon3)C4)CC2)c1 [Example 6C, (S)-7-(4-(2-((2-oxaspiro[3.3]heptan-6-yl)oxy)-5-fluorophenyl)piperidin-1-yl)-2-(1,2,4-oxadiazol-3-yl)-5-oxa-2-azaspiro[3.4]octane]
536 | 32 | Fc1ccc(OC2COC2)c(C2CCN([C@@H]3COC4(C3)CN(c3nnco3)C4)CC2)c1 [Example 1A, (S)-7-(4-(5-fluoro-2-(oxetan-3-yloxy)phenyl)piperidin-1-yl)-2-(1,3,4-oxadiazol-2-yl)-5-oxa-2-azaspiro[3.4]octane]
390 | 38 | Fc1ccc(OC2COC2)c(C2CCN([C@@H]3COC4(C3)CN(c3ncon3)C4)CC2)c1 [Example 6B, (S)-7-(4-(5-fluoro-2-(oxetan-3-yloxy)phenyl)piperidin-1-yl)-2-(1,2,4-oxadiazol-3-yl)-5-oxa-2-azaspiro[3.4]octane]
1070 | 36 | CCC1(COc2ccc(F)cc2C2CCN([C@@H]3COC4(C3)CN(c3nnco3)C4)CC2)COC1 [Example 2P, (S)-7-(4-(2-((3-ethyloxetan-3-yl)methoxy)-5-fluorophenyl)piperidin-1-yl)-2-(1,3,4-oxadiazol-2-yl)-5-oxa-2-azaspiro[3.4]octane]
498 | 47 | CC1(COc2ccc(F)cc2C2CCN([C@@H]3COC4(C3)CN(c3nnco3)C4)CC2)COC1 [Example 2K, (S)-7-(4-(5-fluoro-2-((3-methyloxetan-3-yl)methoxy)phenyl)piperidin-1-yl)-2-(1,3,4-oxadiazol-2-yl)-5-oxa-2-azaspiro[3.4]octane]
214 | 62 | Fc1ccc(OCC2(F)COC2)c(C2CCN([C@@H]3COC4(C3)CN(c3nnco3)C4)CC2)c1 [Example 2J, (S)-7-(4-(5-fluoro-2-((3-fluorooxetan-3-yl)methoxy)phenyl)piperidin-1-yl)-2-(1,3,4-oxadiazol-2-yl)-5-oxa-2-azaspiro[3.4]octane]
